Reference: patent US8940704B2, “Advantageous salts of μ-opiate receptor peptides” (Cytogel Pharma, LLC, priority 2007, dated 2015)
Converted amounts (≈) assume the structure as drawn.

How the values were obtained:
[1] = Solution stability (HPLC total area normalization); assay type: physicochemical; conditions: for Solution stability, 2 weeks at 25° C. / Solution stability, 2 weeks at 40° C. / Solution stability, Time Zero: 90:10 acetonitrile:water with 0.1% TFA; for Solution stability, Time Zero: 0.3 mg/mL
Method: Solution Stability. The four final salt candidates were dissolved (in duplicate) in acetonitrile: water: (90:10) with 0.1% TFA at a concentration of 0.3 mg (free base basis) per mL of solvent. The scintillation vials were sealed. One vial of each salt solution was placed in a 40™C over for 2 weeks. Another vial of each salt solution was stored at 25° C. for 2 week. These solutions (and “time zero” solutions) were analyzed for CYT-1010 by HPLC.
(§1) HPLC Analysis. Salt candidates were analyzed by total area normalization (TAN). The samples were dissolved in acetonitrile:water (90:10) with 0.1% TFA at a free base concentration of 0.3 mg/mL.
(§2) • HPLC column: YMC-Pack ODS-A 150 mm, 4.6 mm, 5 micron • Guard Column (optional) None • Column Temp: 25±1° C. • Sample Temp: ambient • Autosampler Flush: 1:1 Water:CAN • Flow Rate: 1.5 mL/min • Injection Volume: 7 μL • UV Detection: 215 nm • Run Time: 32 minutes • Analysis Time: 32 minutes • Mobil Phase: A—0.1% TFA in water • B—0.1% TFA in CAN • Gradient Puym Program*: […]
The solution stability characteristics were evaluated by collecting HPLC data on solutions stored in sealed vials for two weeks at approximately 25 and 40° C. The storage solution consisted of 90:10 acetronitrile:water with 0.1% TFA which is the diluent for the HPLC assay.

[2] = Solid state stability (HPLC total area normalization); assay type: physicochemical; conditions: for Solid state stability, 2 weeks at 25° C. / Solid state stability, 2 weeks at 60° C.: sealed vial
Method: Solid State Stability. Power samples of the four final salt candidates were transferred (in duplicate) to scintillation vials and sealed. One vial of each salt was placed in a 60° C. over for 2 week. Another vial of each salt was stored at 25° C. for 2 week. These samples (and “time zero” solutions) were analyzed for CYT-1010 by HPLC.
as §1, §2
The solid state stability characteristics were evaluated by collecting HPLC data on salt samples stored in sealed vials at 25 and 60° C. for two weeks.

[3] = Photostability (ICH option 2 UV, HPLC); assay type: physicochemical; conditions: for Photostability, 2 weeks UV Exposed: ICH option 2 UV; for Photostability, 2 weeks UV Exposed / Photostability, 2 weeks Dark Control: about 25° C.; for Photostability, 2 weeks Dark Control: covered with aluminum foil; for decrease in area %, photostability: from time zero to UV exposed
Method: Photo Stability. Samples of the four final salt candidates were transferred (in duplicate) to crystallizing dishes and sealed with Saran® wrap. One dish of each salt was also covered with aluminum foil (as the dark controls). Another dish of each salt was not covered with aluminum foil (as the photoexposed samples). The samples were exposed to ICH compliant option 2 UV sources to examine their stability with respect to light at approximately 25° C. Dark controls and time zero samples were also analyzed for comparison. Samples were analyzed for CYT-1010 by HPLC.
as §1, §2
Samples of the four salt candidates were exposed to ICH compliant option 2 UV sources to examine their stability with respect to light at approximately 25° C. Dark controls were also analyzed for comparison.

[4] = Oxidation stability (pure oxygen atmosphere, HPLC); assay type: physicochemical
Method: Oxidation Stability. Samples of the four final salt candidates were exposed to a pure oxygen atmosphere for 2 weeks to examiner their stability with respect to oxidation at 25° C. Samples were analyzed for CYT-1010 by total area normalization for impurity profile by HPLC.
as §1, §2
Samples of the four salts were exposed to a pure oxygen atmosphere to examine their stability with respect to oxidation at 25° C.

[5] = Dynamic vapor sorption (DVS); assay type: physicochemical; conditions: 25° C.
Method: Dynamic Vapor Sorption (DVS) (Performed by Surface Measurement Systems Ltd., Allentown, Pa.). Samples were run in an automated dynamic vapor sorption analyzer from 0 to 95% relative humidity and back to 0% relative humidity at 25° C. in 5% RH steps. Samples were predried (to constant mass) under a dry nitrogen stream before analysis. Weight change as a function of humidity and time was recorded to construct a moisture isotherm and kinetic plot of water sorption and desorption. Sample masses were generally in the range of 1-5 mg.

[6] = HPLC impurity profile at time zero; assay type: physicochemical
Method: as §1, §2
The scaled-up aspartate, hydrochloride, lactate, and maleate salts together with the free base were analyzed in duplicate by total area normalization (TAN) to determine their impurity profiles. […] The salts were also stressed in solution using heat.
Samples were prepared at a free base concentration of 0.3 mg/mL. The diluent for all sample preparations was 90:10 acetronitrile:water with 0.1% TFA. All solutions were sonicated for at least five minutes prior to analysis. Analysis was done over four days. The impurity profile of the free base, as shown in the table below, was consistent over this time.
Time Zero. Some observations were made concerning the HPLC impurity profile of the free base and salt samples. First, impurities at 0.89, 0.92, 1.02, and 1.03 RRT (relative retention time) are detected in the time zero sample preparations of the free base and all four salts. The largest of these four impurities is the 1.02 RRT impurity which is between 0.4 and 0.5 area % in all five compounds. The maleate salt also has a very large impurity peak at time zero (2.7 area %) at 1.14 RRT. Thus the maleate salt has a relatively low area % purity of 96 area %.

physchem = conditions: aqueous buffer
delta receptors = delta receptors (Homo sapiens, UniProt P41143); conditions: selectivity mu over delta
[7] = 2 weeks at 25° C. versus time zero
[8] = 2 weeks at 60° C. as compared to 25° C. data
[9] = 2 weeks pure oxygen atmosphere, 25° C.

delta receptors, sequence (P41143 whole entry): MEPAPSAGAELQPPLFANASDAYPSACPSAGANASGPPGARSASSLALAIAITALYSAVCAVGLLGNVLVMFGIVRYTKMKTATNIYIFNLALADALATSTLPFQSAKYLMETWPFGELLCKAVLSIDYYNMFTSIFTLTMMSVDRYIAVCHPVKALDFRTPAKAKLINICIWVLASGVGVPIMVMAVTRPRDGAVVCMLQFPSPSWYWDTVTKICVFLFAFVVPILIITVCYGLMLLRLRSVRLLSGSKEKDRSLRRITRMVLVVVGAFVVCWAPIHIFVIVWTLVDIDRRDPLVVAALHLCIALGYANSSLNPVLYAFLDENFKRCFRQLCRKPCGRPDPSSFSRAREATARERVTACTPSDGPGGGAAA

## NC(Cc1ccc(O)cc1)C(=O)NC1CCCCNC(=O)C(Cc2ccccc2)NC(=O)C(Cc2c[nH]c3ccccc23)NC1=O [Free Base, H-Tyr-c-[D-Lys-Trp-Phe]]
[1]; 2 weeks at 25° C.
  Solution stability, 2 weeks at 25° C.: 98.6 area %
[1]; 2 weeks at 40° C.
  Solution stability, 2 weeks at 40° C.: 98.7 area %
[1]; solution, 2 weeks at 25° C.
  Impurity by RRT 0.21: 0.50 area %
  Impurity by RRT 0.89: 0.06 area %
  Impurity by RRT 0.92: 0.04 area %
  Impurity by RRT 0.95: 0.06 area %
  Impurity by RRT 1.02: 0.53 area %
  Impurity by RRT 1.03: 0.18 area %
[1]; solution, 2 weeks at 40° C.
  Impurity by RRT 0.21: 0.50 area %
  Impurity by RRT 0.89: 0.04 area %
  Impurity by RRT 0.95: 0.03 area %
  Impurity by RRT 1.02: 0.51 area %
  Impurity by RRT 1.03: 0.18 area %
[1]
  Solution stability, Time Zero: 99.2 area %
[2]; [7]
  decrease in area %, solid state stability: 0.4 area %
[2]; [8]
  decrease in area %, solid state stability: decreased slightly
[2]
  Solid state stability, Time Zero: 99.2 area %
  Solid state stability, 2 weeks at 25° C.: 98.8 area %
  Solid state stability, 2 weeks at 60° C.: 98.7 area %
[2]; summary of Tables 6-9
  changes in HPLC-TAN values upon exposure to heat, light, or oxygen: did not exhibit significant changes
[3]
  Photostability, 2 weeks UV Exposed: 98.9 area %
  Photostability, 2 weeks Dark Control: 99.0 area %
  Photostability, Time Zero: 99.2 area %
  decrease in area %, photostability: 0.3 area %
[4]; [9]
  Impurity by RRT 0.87: 0.04 area %
  Impurity by RRT 0.89: 0.30 area %
  Impurity by RRT 0.92: 0.20 area %
  Impurity by RRT 0.95: 0.04 area %
  Impurity by RRT 1.02: 0.53 area %
  Impurity by RRT 1.03: 0.20 area %
  Oxidation stability, 2 weeks Oxidation: 97.7 area %
[4]; 2 weeks pure oxygen versus time zero
  decrease in area %, oxidative stability: 1.5 area %
[4]
  Oxidation stability, Time Zero: 99.2 area %
[5]; by 90% RH
  DVS water uptake: up to 1.7 wt %
[6]
  Impurity by RRT 0.89: 0.09 area %
  Impurity by RRT 0.92: 0.05 area %
  Impurity by RRT 1.02: 0.53 area %
  Impurity by RRT 1.03: 0.16 area %
physchem; pH 7
  solubility: < 3 µg/mL
physchem; pH 10
  solubility: 6 µg/mL (≈ 9.6 µM)

## H-Tyr-Pro-Trp-Phe-NH2 [SEQ ID NO:1]
Delta receptors
  fold weaker binding to delta receptors than to mu opiate receptor: over 4000 fold

## Lactate
[1]; 2 weeks at 25° C.
  Solution stability, 2 weeks at 25° C.: 98.5 area %
[1]; 2 weeks at 40° C.
  Solution stability, 2 weeks at 40° C.: 98.5 area %
[1]; solution, 2 weeks at 25° C.
  Impurity by RRT 0.21: 0.59 area %
  Impurity by RRT 0.89: 0.05 area %
  Impurity by RRT 0.92: 0.11 area %
  Impurity by RRT 0.95: 0.14 area %
  Impurity by RRT 1.02: 0.49 area %
  Impurity by RRT 1.03: 0.15 area %
[1]; solution, 2 weeks at 40° C.
  Impurity by RRT 0.21: 0.62 area %
  Impurity by RRT 0.89: 0.04 area %
  Impurity by RRT 0.92: 0.04 area %
  Impurity by RRT 0.95: 0.14 area %
  Impurity by RRT 0.98: <0.03 area %
  Impurity by RRT 1.02: 0.50 area %
  Impurity by RRT 1.03: 0.16 area %
  Impurity by RRT 1.32: <0.03 area %
  Impurity by RRT 2.39: <0.03 area %
[1]
  Solution stability, Time Zero: 99.2 area %
[2]; [7]
  decrease in area %, solid state stability: 0.2 area %
[2]; [8]
  decrease in area %, solid state stability: 0.5 area %
[2]
  Solid state stability, Time Zero: 99.2 area %
  Solid state stability, 2 weeks at 25° C.: 99.0 area %
  Solid state stability, 2 weeks at 60° C.: 98.5 area %
[3]
  Photostability, 2 weeks UV Exposed: 98.6 area %
  Photostability, 2 weeks Dark Control: 99.0 area %
  Photostability, Time Zero: 99.2 area %
  decrease in area %, photostability: 0.6 area %
[4]; [9]
  Impurity by RRT 0.87: <0.03 area %
  Impurity by RRT 0.89: 0.24 area %
  Impurity by RRT 0.92: 0.20 area %
  Impurity by RRT 0.95: 0.13 area %
  Impurity by RRT 1.02: 0.49 area %
  Impurity by RRT 1.03: 0.15 area %
  Impurity by RRT 1.18: <0.03 area %
  Oxidation stability, 2 weeks Oxidation: 98.8 area %
[4]
  Oxidation stability, Time Zero: 99.2 area %
[5]; 0-70% RH range
  DVS water uptake: 1-3 wt %
[5]; by 90% RH
  DVS water uptake: up to 6 wt %
[6]
  Impurity by RRT 0.89: 0.04 area %
  Impurity by RRT 0.92: 0.08 area %
  Impurity by RRT 0.95: 0.10 area %
  Impurity by RRT 1.02: 0.49 area %
  Impurity by RRT 1.03: 0.13 area %
  Impurity by RRT 1.18: <0.03 area %
